We go through eleven compounds from patent US5143923A, “Benzoisothiazole- and benziosoxazole-3-carboxamides” (Hoechst-Roussel Pharmaceuticals Inc., priority 1991, dated 1992).

The subject of test [1] is apomorphine-induced climbing. As to the kind of experiment: Inhibition of apomorphine-induced climbing, climbing mice assay (antipsychotic activity). Format: in vivo, CK-1 male mice. The following applies: for ED50: Mus musculus, ip, read-out: Antipsychotic Activity ED50. Here is the method:
The subject CK-1 male mice (23-27 grams) are group-housed under standard laboratory conditions. The mice are individually placed in wire mesh stick cages (4"×4"10") and are allowed one hour for adaptation and exploration of the new environment.
For evaluation of climbing, 3 readings are taken at 10, 20 and 30 minutes after apomorphine administration according to the following scale: […]
Mice consistently climbing before the injection of apormorphine are discarded.
With full-developed apomorphine climbing, the animals are hanging onto the cage walls, rather motionless, over longer periods of time. By contrast, climbs due to mere motor stimulation usually only last a few seconds.
The climbing scores are individually totaled (maximal score; 6 per mouse over 3 readings) and the total score of the control group (vehicle intraperitioneally-apomorphine subcutaneously) is set to 100%.

The test system of test [2] is apomorphine induced stereotypy. As to the kind of experiment: Inhibition of apomorphine induced stereotypy assay (extrapyramidal side effect potential). The format is in vivo, male Wistar rats. Here is the method:
Potential for undersible extrapyramidal side effect activity is determined in the inhibition of apormorphine stereotypy assay by methods similar to those described by N. E. Anden, et al., J. Pharma.
Drugs are prepared using distilled water and, if insoluble, a suitable surfactant is added. The route of administration may be varied and the dosage volume is 10 ml/kg. For a primary screen, a group size of six is used. Drug is administered one hour prior to scoring and the animals are placed in individual clear plastic cages (24×14×13 cm). The control group receives vehicle. Apomorphine hydrochloride solution is prepared at a concentration of 15 mg/10 ml in a 0.03% ascorbic acid stock solution (30 mg of ascorbic acid in 100 ml of 1% saline) to increase the stability of the apomorphine hydrochloride while in solution. […] Fifty minutes after drug dosing, stereotypic behavior is noted. Stereotypic activity is defined as sniffing, licking or chewing behavior that occurs in a repetitive manner and is rated as follows: Constant sniffing, licking or chewing without interruption; the animal is considered protected if this behavior is interrupted.
The percent effectiveness of a drug is determined by the number of animals protected in each group.
A dose-response is run in the same manner as a primary screen except that a group size of 10 is used and the animals are dosed in a randomized manner. One group receives vehicle. ED50 for stereotypy are calculated by means of probit analysis.

The mark [3] stands for this setting: Rattus norvegicus, read-out: % Inhibition of apomorphine induced stereotypy.
[4] abbreviates: mice, compound intraperitoneally 30 min before apomorphine 1.5 mg/kg s.c.

Counter-ions that a name gives are not always drawn. Like-named read-outs stand apart in the source and are kept apart here.

For the compound `O=C(CCCN1CCC(O)(c2ccc(Cl)cc2)CC1)c1ccc(F)cc1` [Haloperidol, reference compound], the ED50 in test [1] stood at 0.11 mg/kg. Also, the inhibition at 0.2 mg/kg in test [2] (setting [3]) came to 50%. `CN(CCCCN1CCN(c2nsc3ccccc23)CC1)C(=O)c1nsc2ccccc12` [N-Methyl-N-[4-(1-(1,2-benzisothiazol-3-yl)-4-piperazinyl)butyl]-1,2-benzisothiazole-3-carboxamide hydrochloride]: the inhibition at 40 mg/kg in test [2] (setting [3]) stood at 100%. `COc1ccccc1N1CCN(CCCCN(C)C(=O)c2nsc3ccccc23)CC1` [N-Methyl-N-[4-(1-(2-methoxyphenyl)-4-piperazinyl)butyl]-1,2-benzisothiazole-3-carboxamide dihydrochloride hemihydrate]: the “Antipsychotic Activity ED50” value in test [1] (mice, compound intraperitoneally 30 min before apomorphine 1.5 mg/kg s.c., dihydrochloride hemihydrate) is reported as 4.2 mg/kg; in test [1] (mice, compound intraperitoneally 30 min before apomorphine 1.5 mg/kg s.c., listed as N-methyl-N-[4-(1-(2-methoxyphenyl)-4-piperazinyl)butyl-1,2-benzisothiazole-3-car, dihydrochloride hemihydrate), 9.6 mg/kg. In test [2] (Rattus norvegicus, rats, dose 39.2 mg/kg body wt.), this compound gave an inhibition at 39.2 mg/kg of 50%. For `CN(CCCCN1CCN(c2csc3cc(F)ccc23)CC1)C(=O)c1nsc2ccccc12.Cl` [N-Methyl-N-[4-(1-(6-fluorobenzo[b]thiophen-3-yl)-4-piperazinyl)butyl]-1,2-benzisothiazol-3-carboxamide hydrochloride], the ED50 in test [1] is 4.5 mg/kg. The inhibition at 40 mg/kg in test [2] (setting [3]) is 100%. On to `CN(CCCCN1CCN(c2csc3cc(F)ccc23)CC1)C(=O)c1noc2ccccc12.Cl` [N-Methyl-N-[4-(1-(6-fluorobenzo[b]thiophen-3-yl)-4-piperazinyl)butyl]-1,2-benzisoxazole-3-carboxamide hydrochloride], for which the ED50 in test [1] worked out at 5 mg/kg. Moreover, in test [2] (setting [3]), the inhibition at 52 mg/kg turned out to be 50%. Consider `COc1ccccc1N1CCN(CCNC(=O)c2nsc3ccccc23)CC1.Cl.Cl` [N-[2-(1-(2-Methoxyphenyl)-4-piperazinyl)ethyl]-1,2-benzisothiazole-3-carboxamide dihydrochloride], for which the ED50 in test [1] was determined as 6.3 mg/kg. Besides, in test [2] (setting [3]), the inhibition at 51.8 mg/kg is 50%. On to `Cl.O=C(NCCN1CCN(c2csc3cc(F)ccc23)CC1)c1noc2ccccc12` [N-[2-(1-(6-fluorobenzo[b]thiophen-3-yl)-4-piperazinyl)ethyl]-1,2-benzisoxazole-3-carboxamide hydrochloride], for which the ED50 in test [1] is 4.9 mg/kg. Also, the inhibition at 80 mg/kg in test [2] (setting [3]) came out at 0%.

For the compound `Cl.O=C(NCCCCN1CCN(c2nsc3ccccc23)CC1)c1nsc2ccccc12` [N-[4-(1-(1,2-Benzisothiazol-3-yl)-4-piperazinyl)butyl]-1,2-benzisothiazole-3-carboxamide hydrochloride], in test [1], the ED50 was determined as 8.3 mg/kg. In addition, the inhibition at 40 mg/kg in test [2] (setting [3]) amounted to 17%. As for `CCN1CCCC1CNC(=O)c1cc(S(N)(=O)=O)ccc1OC` (centres unmarked) [Sulpiride, reference compound], the ED50 in test [1] (setting [4]) came out at 4.5 mg/kg.

Compound `CSc1ccc2c(c1)N(CCC1CCCCN1C)c1ccccc1S2` (centres unmarked) [thioridazine, reference compound] returned an inhibition at 16 mg/kg in test [2] (Rattus norvegicus, rats, dose 16 mg/kg body wt.) of 50%. As for “N-[2-(1-(4-Fluorobenzoyl)-4-piperidinyl)ethyl]-1,2-benzisothiazole-3-carboxamide hydrochloride hemihydrate”, the “Antipsychotic Activity ED50” value in test [1] (setting [4]) is 3.6 mg/kg. For the same compound, the “% Inhibition of apomorphine induced stereotypy” value in test [2] (rats, dose 20 mg/kg body wt.) was determined as 67%.
